One block for each compound: values may come before it.
Experiments:
5-HT1A receptor = biological target: T1, 5-HT1A receptor (Homo sapiens, UniProt P08908); assay: 5-HT1A [35S]GTPγS binding functional assay
T1 sequence (P08908 1-422): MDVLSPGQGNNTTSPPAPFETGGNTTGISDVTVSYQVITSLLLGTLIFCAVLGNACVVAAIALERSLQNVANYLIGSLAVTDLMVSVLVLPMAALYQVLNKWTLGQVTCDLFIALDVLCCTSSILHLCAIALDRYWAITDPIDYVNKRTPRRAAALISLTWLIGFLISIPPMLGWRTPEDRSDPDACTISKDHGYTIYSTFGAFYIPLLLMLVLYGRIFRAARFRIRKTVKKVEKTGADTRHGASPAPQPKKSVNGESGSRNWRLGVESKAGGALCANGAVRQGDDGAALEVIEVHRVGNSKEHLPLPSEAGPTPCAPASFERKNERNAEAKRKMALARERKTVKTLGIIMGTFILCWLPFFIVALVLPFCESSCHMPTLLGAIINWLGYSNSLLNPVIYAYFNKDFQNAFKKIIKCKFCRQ

D3R = settings: cited from earlier work
Human Dopamine D3R = Human Dopamine D3R (Homo sapiens, UniProt P35462); assay: Stimulation or inhibition of quinpirole-stimulated mitogenesis in CHO cells; type: cell-based; settings: mitogenesis assay
[1] = rats, PO 10 mg/kg; adapted from previously reported data; cited from earlier work
[2] = Pharmacokinetics in rats after oral administration, plasma and brain; settings: PO 10 mg/kg
dogs = settings: cited from earlier work
[3] = tested on: oxycodone self-administration; settings: cited from earlier work
rats = settings: pretreatment, rats chronically treated with oxycodone; cited from earlier work
[4] = hot plate assay; cited from earlier work

Human Dopamine D3R, sequence (P35462 whole entry): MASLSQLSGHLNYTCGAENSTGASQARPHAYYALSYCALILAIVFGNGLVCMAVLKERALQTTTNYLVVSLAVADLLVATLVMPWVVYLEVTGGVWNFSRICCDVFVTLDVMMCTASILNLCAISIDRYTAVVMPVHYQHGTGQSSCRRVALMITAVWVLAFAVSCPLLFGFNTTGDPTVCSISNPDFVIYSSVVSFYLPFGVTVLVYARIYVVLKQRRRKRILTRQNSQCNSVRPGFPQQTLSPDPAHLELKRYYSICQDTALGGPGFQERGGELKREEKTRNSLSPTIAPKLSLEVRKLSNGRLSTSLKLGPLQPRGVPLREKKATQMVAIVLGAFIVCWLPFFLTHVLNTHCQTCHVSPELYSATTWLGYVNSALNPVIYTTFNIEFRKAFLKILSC

5-HT1A functional efficacy (in words) (5-HT1A receptor): low potency partial agonist
Compound: CCc1cccc(N2CCN(CC(F)CCNC(=O)c3cc4ccccc4o3)CC2)c1Cl (centres unmarked) [10b, N-(4-(4-(2-Chloro-3-ethylphenyl)piperazin-1-yl)-3-fluorobutyl)benzofuran-2-carboxamide]

Compound: O=C(NCC[C@@H](O)CN1CCN(c2cccc(Cl)c2Cl)CC1)c1cc2ccccc2[nH]1 [(R)-2]
D3R functional efficacy (in words) (D3R): antagonist

D3R functional efficacy (in words) (Human Dopamine D3R): D3R antagonists
Compound: CCc1cc(Cl)c(OC)c(N2CCN(C[C@H](O)CCNC(=O)c3cc4ccccc4[nH]3)CC2)c1 [(R)-4, (R)-N-(4-(4-(3-Chloro-5-ethyl-2-methoxyphenyl)piperazin-1-yl)3-hydroxybutyl)-1H-indole-2-carboxamide]

Compound: CCc1cccc(N2CCN(C[C@H](O)CCNC(=O)c3cc4ccccc4[nH]3)CC2)c1Cl [(R)-5, (R)-N-(4-(4-(2-Chloro-3-ethylphenyl)piperazin-1-yl)-3-hydroxybutyl)-1H-indole-2-carboxamide]
plasma exposure (AUC0-t) [1]: 1.985 ± 0.2786 µM·h

Compound: O=C(NCC[C@H](O)CN1CCN(c2cccc(Cl)c2Cl)CC1)c1cc2ccccc2[nH]1 [(S)-2]
D3R functional efficacy (in words) (D3R): weak partial agonist

D3R functional efficacy (in words) (Human Dopamine D3R): D3R antagonists
Compound: CCc1cc(Cl)c(OC)c(N2CCN(C[C@@H](O)CCNC(=O)c3cc4ccccc4[nH]3)CC2)c1 [(S)-4, (S)-N-(4-(4-(3-Chloro-5-ethyl-2-methoxyphenyl)piperazin-1-yl)3-hydroxybutyl)-1H-indole-2-carboxamide]

brain Cmax [2]: 3666.7 ± 312.7 pmol/g
Compound: CCc1cccc(N2CCN(C[C@@H](O)CCNC(=O)c3cc4ccccc4[nH]3)CC2)c1Cl [(S)-5, (S)-N-(4-(4-(2-Chloro-3-ethylphenyl)piperazin-1-yl)-3-hydroxybutyl)-1H-indole-2-carboxamide]

Compound: Cc1ncoc1-c1nnc(SCCCN2C[C@@H]3C[C@]3(c3ccc(C(F)(F)F)cc3F)C2)n1C [compound 1]
blood pressure effect when coadministered with cocaine (dogs): produced hypertension

Compound: CCc1cc(Cl)c(OC)c(N2CCN(CC(O)CCNC(=O)c3cc4ccccc4[nH]3)CC2)c1 (centres unmarked) [compound 4]
acquisition and maintenance of oxycodone self-administration [3]: dose-dependently inhibited
oxycodone extinction response and reinstatement of oxycodone-seeking [3]: inhibited oxycodone extinction response and reinstatement of oxycodone-seeking behaviors
break-point for oxycodone self-administration ([3]; progressive-ratio schedule of reinforcement): lowering the break-point
naloxone-precipitated conditioned place aversion (rats): dose-dependently reduced
effect on antinociceptive actions of oxycodone [4]: no effect

Compound: CCc1cccc(N2CCN(CC(O)CCNC(=O)c3cc4ccccc4[nH]3)CC2)c1Cl (centres unmarked) [compound 5]
D3R functional efficacy (in words) (D3R): relatively low efficacy partial agonist
